Numbers after ± are expanded uncertainties.
What was measured:
[1] = Crystal; DTA
[2] = Molar enthalpy of transition or fusion; conditions: Crystal; DSC
[3] = molar heat capacity at constant pressure; conditions: 101.33 kPa, Liquid, Small sample (50 mg) DSC

OC[C@H]1O[C@@](CO)(O[C@H]2O[C@H](CO)[C@@H](O)[C@H](O)[C@H]2O)[C@@H](O)[C@@H]1O [D-sucrose]
Normal melting temperature [1]: 151.2 ± 0.5 °C | Molar enthalpy of transition or fusion [2]: 7.65 ± 0.239 kcal/mol | molar heat capacity at constant pressure ([3]; 331 K): 746.98 ± 15 J/K/mol | molar heat capacity at constant pressure ([3]; 340 K): 756.97 ± 15 J/K/mol | molar heat capacity at constant pressure ([3]; 350 K): 768.07 ± 15 J/K/mol | molar heat capacity at constant pressure ([3]; 360 K): 779.17 ± 16 J/K/mol | molar heat capacity at constant pressure ([3]; 370 K): 790.27 ± 16 J/K/mol | molar heat capacity at constant pressure ([3]; 380 K): 801.37 ± 16 J/K/mol | molar heat capacity at constant pressure ([3]; 390 K): 812.47 ± 16 J/K/mol | molar heat capacity at constant pressure ([3]; 400 K): 823.57 ± 16 J/K/mol | molar heat capacity at constant pressure ([3]; 410 K): 834.67 ± 17 J/K/mol | molar heat capacity at constant pressure ([3]; 420 K): 845.77 ± 17 J/K/mol | molar heat capacity at constant pressure ([3]; 424 K): 850.21 ± 17 J/K/mol | molar heat capacity at constant pressure ([3]; 430 K): 856.87 ± 17 J/K/mol | molar heat capacity at constant pressure ([3]; 440 K): 867.97 ± 17 J/K/mol | molar heat capacity at constant pressure ([3]; 450 K): 879.07 ± 18 J/K/mol | molar heat capacity at constant pressure ([3]; 460 K): 890.17 ± 18 J/K/mol | molar heat capacity at constant pressure ([3]; 470 K): 901.27 ± 18 J/K/mol | molar heat capacity at constant pressure ([3]; 480 K): 912.37 ± 18 J/K/mol | molar heat capacity at constant pressure ([3]; 490 K): 923.47 ± 18 J/K/mol | molar heat capacity at constant pressure ([3]; 500 K): 934.57 ± 19 J/K/mol | molar heat capacity at constant pressure ([3]; 510 K): 945.67 ± 19 J/K/mol | molar heat capacity at constant pressure ([3]; 520 K): 956.77 ± 19 J/K/mol | molar heat capacity at constant pressure ([3]; 530 K): 967.87 ± 19 J/K/mol | molar heat capacity at constant pressure ([3]; 540 K): 978.97 ± 20 J/K/mol | molar heat capacity at constant pressure ([3]; 550 K): 990.07 ± 20 J/K/mol | molar heat capacity at constant pressure ([3]; 560 K): 1001.2 ± 20 J/K/mol | molar heat capacity at constant pressure ([3]; 570 K): 1012.3 ± 20 J/K/mol | molar heat capacity at constant pressure ([3]; 580 K): 1023.4 ± 20 J/K/mol | molar heat capacity at constant pressure ([3]; 590 K): 1034.5 ± 21 J/K/mol | molar heat capacity at constant pressure ([3]; 600 K): 1045.6 ± 21 J/K/mol

Reference: the NIST ThermoML archive (doi:10.1016/j.tca.2014.05.029)
